Experimental data as given in US20240316146A1, “METHODS OF REDUCING NEUROPATHY AND NEUROPATHIC SYMPTOMS AND TREATING CANCER” (Bexion Pharmaceuticals Inc., priority 2021, published 2024).
Where “and” joins values, the source holds several entries; their conditions need not be identical. Equal values may be shown once.

Experiments:
[1] = test system: mouse oxaliplatin model of chemotherapy-induced neuropathy; assay: Thermal hypersensitivity, cold plate test 15° C., Study 1; type: in vivo
Protocol: (§1) 60 adult male C57/BL6 mice (Charles River), 6-7 weeks of age, were housed in groups of 5 in Perspex cages, in a controlled environment of constant temperature and humidity (temperature: 21±1° C., light: dark cycle of 12:12 hours), with food and water available ad libitum. Animals were allowed to recover from transportation for at least one week before commencing experiments.
(§2) Thermal hypersensitivity: Thermal hypersensitivity was assessed using a dynamic cold plate (Bioseb, France) set at a fixed temperature of 15° C. This method allows analysis of more integrated behaviors rather than reflex behaviors, e.g., the tail immersion test. In animal studies, thermal sensitivity is mostly evaluated based on nociceptive reaction latencies in response to a given thermal aversive stimulus. In this classical test, the temperature of the plate is fixed and remains constant: the latency to the first paw licking, jumps or withdrawal is taken as an index of nociceptive threshold. […] The results of the study are shown in Table 5 (raw data) below, Table 6 (summary) below, FIG. 4, and FIG. 5.
(§3) Warm vials of BQX-350 were brought to room temperature and reconstituted with 4 mL water for injection via syringe. The vials were gently agitated and/or vortexed for 15-20 sec and allowed to sit at room temp for 5 mins. The rehydrated solution contained 2.2 mg/mL SapC (8.8 mg SapC per vial). About […] of the formulation was injected to achieve a target dose of 20 mg/kg in each mouse. Pregabalin was reconstituted in water and injected to achieve a target dose of 30 mg/kg in each mouse.
(§4) A two-way repeated measures ANOVA with ‘treatment’ as a between subjects effect, and ‘day’ as a within subjects effect was used (using GraphPad Prism version 9.0 for Windows, GraphPad Software, San Diego California USA), followed by Dunnett's multi comparisons test. Data is presented as mean±SEM.

[2] = test system: mouse oxaliplatin model of chemotherapy-induced neuropathy; assay: Static mechanical (tactile) allodynia, von Frey filaments, Study 1; type: in vivo
Protocol: as §1
(§5) Static mechanical tactile allodynia: Static mechanical (tactile) allodynia was assessed by measurement of withdrawal threshold using calibrated (force; g) von-Frey monofilaments (Touch-Test Sensory Evaluator; Scientific Marketing Associates) applied to the plantar surface of the left hind-paw. The animals were placed in individual Perspex boxes on a raised metal mesh for 30-40 min before the test to habituate. A series of graduated von Frey hairs (0.07, 0.16, 0.4, 0.6 and 1 g) were applied in sequence with a protocol of 1 sec on 1 sec off repeated 10 times. Each hair was applied perpendicularly to the center of the ventral surface of the paw until it bent slightly. The force applied to the hind-paw of the animal to induce 5 responses out of 10 trials was recorded as paw withdrawal threshold (PWT) 50%.
as §3, §4

[3] = test system: mouse oxaliplatin model of chemotherapy-induced neuropathy; assay: Thermal hypersensitivity, cold plate test, Study 2; settings: Group B Oxaliplatin/Vehicle; for Latency to withdrawal behaviour in the cold plate test (15° C.): N 12
Protocol: as §2, §1
Thermal hypersensitivity: The same apparatus and protocol were used as for Study 1. The results of Study 2 are shown in Table 11 (raw data), Table 12 (summary), FIG. 8, and FIG. 9.

[4] = test system: mouse oxaliplatin model of chemotherapy-induced neuropathy; assay: Static mechanical (tactile) allodynia, von Frey filaments, Study 2; type: in vivo; settings: Study 2; oxaliplatin treated mice, days assessed; BXQ-350 2 and 10 mg/kg
Protocol: as §5, §1
Static mechanical tactile allodynia: The same apparatus and protocol were used as for Study 1.

Body weights, Study 2 = type: in vivo, mouse; settings: Group B Oxaliplatin/Vehicle, individual mice
Description: Body Weights: The mice were weighed daily starting 1 day prior to treatment through day 9.

[5] = cold plate 15° C., oxaliplatin 10 mg/kg IP day 0 (+vehicle, BXQ-350 20 mg/kg IP or pregabalin 30 mg/kg IP), group mean
[6] = oxaliplatin treated animals, day 3 to day 9, BXQ-350 20 mg/kg, pregabalin 30 mg/kg 2 hours before assessment
[7] = oxaliplatin 10 mg/kg IP day 0 (+vehicle, BXQ-350 20 mg/kg IP or pregabalin 30 mg/kg IP), group mean

**Q.** What does the source list for `O=C([O-])C(=O)[O-].[NH-][C@@H]1CCCC[C@H]1[NH-].[Pt+4]` (relative stereo) [Oxaliplatin, cis-[(1R,2R)-1,2-cyclohexanediamine-N,N′][oxalato(2)-O,O′] platinum]?
**A.** Latency (s) Baseline [1, 5]: 54.717 s; Latency (s) D 3 [1, 5]: 25.583 s; Latency (s) D 5 [1, 5]: 28.567 s; Latency (s) D 7 [1, 5]: 32.475 s; Latency (s) D 9 [1, 5]: 22.050 s; Individual latency to displaying withdrawal behaviour in the cold plate test ([1]; oxaliplatin 10 mg/kg IP day 0 (+vehicle, BXQ-350 20 mg/kg IP or pregabalin 30 mg/kg IP), Baseline, individual mice): 45.4 s and 59.0 s and 48.3 s and 65.5 s and 80.0 s and 54.3 s and 46.2 s and 46.7 s and 46.5 s and 58.8 s and 48.6 s and 57.6 s; Individual latency to displaying withdrawal behaviour in the cold plate test ([1]; oxaliplatin 10 mg/kg IP day 0 (+vehicle, BXQ-350 20 mg/kg IP or pregabalin 30 mg/kg IP), Day 3, individual mice): 22.9 s and 19.5 s and 25.9 s and 24.2 s and 30.2 s and 15.0 s and 31.3 s and 34.1 s and 22.0 s and 24.3 s and 35.5 s and 22.1 s; Individual latency to displaying withdrawal behaviour in the cold plate test ([1]; oxaliplatin 10 mg/kg IP day 0 (+vehicle, BXQ-350 20 mg/kg IP or pregabalin 30 mg/kg IP), Day 5, individual mice): 30.3 s and 27.7 s and 39.8 s and 17.3 s and 31.1 s and 38.3 s and 24.5 s and 18.5 s and 16.0 s and 30.1 s and 33.9 s; Individual latency to displaying withdrawal behaviour in the cold plate test ([1]; oxaliplatin 10 mg/kg IP day 0 (+vehicle, BXQ-350 20 mg/kg IP or pregabalin 30 mg/kg IP), Day 7, individual mice): 16.8 s and 45.9 s and 49.6 s and 37.6 s and 24.3 s and 28.8 s and 18.6 s and 23.0 s and 62.9 s and 31.8 s and 21.5 s and 28.9 s; Individual latency to displaying withdrawal behaviour in the cold plate test ([1]; oxaliplatin 10 mg/kg IP day 0 (+vehicle, BXQ-350 20 mg/kg IP or pregabalin 30 mg/kg IP), Day 9, individual mice): 12.6 s and 13.6 s and 24.8 s and 23.1 s and 31.8 s and 20.9 s and 17.4 s and 25.0 s and 10.6 s and 19.4 s and 25.8 s; thermal (cold) sensitivity, cold plate test (in words) [1, 6]: increased thermal (cold) sensitivity; PWT 50% (g) Baseline [2, 7]: 0.780 g; PWT 50% (g) D3 [2, 7]: 0.423 g; PWT 50% (g) D5 [2, 7]: 0.357 g; PWT 50% (g) D7 [2, 7]: 0.369 g; PWT 50% (g) D9 [2, 7]: 0.373 g; mechanical allodynia (in words) [2, 6]: induced consistent and persistent mechanical allodynic response; Individual latency to displaying withdrawal behaviour in the cold plate test ([3]; oxaliplatin 10 mg/kg i.p. day 0, D 3, individual mice): 18.8 s and 69.3 s and 84.0 s and 28.0 s and 19.9 s and 34.2 s and 36.8 s and 23.9 s and 77.7 s and 54.5 s; Latency to withdrawal behaviour in the cold plate test (15° C.) ([3]; oxaliplatin 10 mg/kg i.p. day 0, D3, mean (SEM)): 42.933 + s; Individual latency to displaying withdrawal behaviour in the cold plate test ([3]; oxaliplatin 10 mg/kg i.p. day 0, D 5, individual mice): 29.8 s and 12.7 s and 28.7 s and 18.6 s and 13.1 s and 25.5 s and 33.8 s and 17.4 s and 47.1 s and 16.4 s and 11.8 s and 43.8 s; Latency to withdrawal behaviour in the cold plate test (15° C.) ([3]; oxaliplatin 10 mg/kg i.p. day 0, D5, mean (SEM)): 24.888 ? s; Individual latency to displaying withdrawal behaviour in the cold plate test ([3]; oxaliplatin 10 mg/kg i.p. day 0, D 7, individual mice): 13.7 s and 22.3 s and 7.4 s and 28.4 s and 4.8 s and 23.9 s and 26.1 s and 29.6 s and 23.2 s and 26.3 s and 12.7 s and 44.2 s; Latency to withdrawal behaviour in the cold plate test (15° C.) ([3]; oxaliplatin 10 mg/kg i.p. day 0, D7, mean (SEM)): 21.883 + s; Individual latency to displaying withdrawal behaviour in the cold plate test ([3]; oxaliplatin 10 mg/kg i.p. day 0, D 9, individual mice): 25.2 s and 23.9 s and 39.0 s and 17.2 s and 18.4 s and 23.0 s and 35.0 s and 23.8 s and 12.7 s and 30.6 s and 6.4 s and 33.2 s; Latency to withdrawal behaviour in the cold plate test (15° C.) ([3]; oxaliplatin 10 mg/kg i.p. day 0, D9, mean (SEM)): 24.033 + s; Individual latency to displaying withdrawal behaviour in the cold plate test ([3]; oxaliplatin 10 mg/kg i.p. day 0, D −1, individual mice): 26.1 s and 32.9 s and 45.8 s and 42.4 s and 24.4 s and 53.7 s and 64.3 s and 91.7 s and 31.2 s and 45.0 s and 37.0 s and 33.4 s; Latency to withdrawal behaviour in the cold plate test (15° C.) ([3]; oxaliplatin 10 mg/kg i.p. day 0, D −1, mean (SEM)): 43.992 + s; Individual latency to displaying withdrawal behaviour in the cold plate test ([3]; oxaliplatin 10 mg/kg i.p. day 0, D −2, individual mice): 36.8 s and 63.0 s and 47.4 s and 35.8 s and 31.9 s and 42.2 s and 61.4 s and 63.3 s and 55.6 s and 41.5 s and 29.0 s and 36.7 s; Latency to withdrawal behaviour in the cold plate test (15° C.) ([3]; oxaliplatin 10 mg/kg i.p. day 0, D −2, mean (SEM)): 45.383 + s; Individual latency to displaying withdrawal behaviour in the cold plate test ([3]; oxaliplatin 10 mg/kg i.p. day 0, D −3, individual mice): 29.9 s and 35.1 s and 40.1 s and 49.9 s and 24.7 s and 30.0 s and 72.0 s and 50.6 s and 67.4 s and 55.6 s; Latency to withdrawal behaviour in the cold plate test (15° C.) ([3]; oxaliplatin 10 mg/kg i.p. day 0, D −3, mean (SEM)): 44.183 + s; paw withdrawal threshold (PWT) levels (in words) [4]: induced consistent and persistent mechanical allodynic response; Individual body weights (Body weights, Study 2; D 0): 26.0 g (2×) and 22.4 g and 23.6 g (2×) and 23.1 g and 24.5 g (2×) and 23.2 g and 24.6 g and 21.9 g and 26.1 g; Individual body weights (Body weights, Study 2; D 1): 24.9 g (2×) and 21.1 g and 23.5 g (2×) and 22.5 g and 23.9 g and 23.7 g and 22.9 g and 23.0 g and 20.8 g and 25.4. g; Individual body weights (Body weights, Study 2; D 2): 24.8 g and 21.3 g and 23.2 g (2×) and 22.3 g and 24.6 g and 23.8 g (2×) and 23.0 g and 23.6 g and 21.0 g and 25.0 g; Individual body weights (Body weights, Study 2; D 3): 24.1 g and 22.4 g (2×) and 22.7 g and 22.2 g (2×) and 23.7 g and 23.0 g (2×) and 22.1 g and 20.6 g and 24.4 g; Individual body weights (Body weights, Study 2; D 4): 25.0 g (2×) and 23.5 g (3×) and 23.1 g (2×) and 22.6 g and 23.7 g and 22.7 g and 21.3 g and 24.8 g; Individual body weights (Body weights, Study 2; D 5): 25.2 g and 23.8 g and 22.8 g (2×); Individual body weights (Body weights, Study 2; D −1): 25.3 g and 21.8 g and 23.6 g and 22.9 g (3×) and 25.5 g and 23.8 g and 24.1 g and 24.3 g and 21.6 g and 26.1 g; Individual body weights (Body weights, Study 2; D −2): 25.4 g (2×) and 21.9 g and 23.8 g (2×) and 23.3 g and 23.9 g and 23.0 g and 23.5 g and 24.1 g and 21.8 g and 25.2 g; Individual body weights (Body weights, Study 2; D −3): 26.0 g (2×) and 22.0 g (2×) and 24.0 g (4×) and 23.0 g (2×) and 25.0 g (2×)
